Experiment: Stage 1 heparin dose-response: CF sputum viscoelasticity by magnetic microrheometry
Design: species or system human
Details: 30 minutes at 37°, 10 rad/s, 10 CF sputum samples; FIG. 3; NAL 309 mcg/mL
Protocol: An experimental programme was conducted to test the mucolytic activity of selected mucoactive agents. The primary objective of this initial protocol is to determine the mucolytic activity (capacity to reduce the viscosity and elasticity and thereby affect clearability) of heparin in cystic fibrosis sputum at concentrations of potential clinical relevance. This constitutes the Stage 1 experiment, below. The secondary objective is to compare heparin with other heparin fractions in a screening test for activity, incorporated in the Stage 2 experiment. […]
The magnetic microrheometer was described by King (King M (1988) “Magnetic microtheometer” Methods in Bronchial Mucology, pp. 73-83.). This instrument is used to measure the bulk viscosity and elasticity of microliter quantities of mucus. […]
When interpreting the results of the studies discussed herein, the primary variable of interest is the decrease in mucus viscoelasticity, expressed as delta log G* (corrected for vehicle treatment). […]
From each of 10 CF sputum samples, up to 6 aliquots of approximately 10-15 mg each were incubated for 30 minutes at 37° with either 0.9% NaCl or with one of the concentrations of heparin, or with N-acetylcysteine L-lysinate (NAL) (309 mcg/mL). Prior to incubation and following it, sputum viscoelasticity at 10 rad/s was determined by magnetic microrheometry. […]

**Q.** With N-acetylcysteine L-lysinate [NAL] as the substance, how does the “mucolytic effect (fractional decrease in G*)” value read?
**A.** Its value is “effective at a lower concentration compared to heparin”.

Reference: patent publication US7928089B2, “Mucoactive agents for treating a pulmonary disease” (Vectura Limited, priority 2003, dated 2011)
